Experimental data reported in US10517839B2, “Mast cell inhibition in diseases of the retina and vitreous” (Cornell University, priority 2008, dated 2019).
“Also recorded” adds a separate entry of the source.

Columns and labels:
[1] = tested on: isolated perfused diabetic kidneys; experiment: Flow rate of isolated perfused diabetic kidneys after mast-cell degranulation with 48/80; details: diabetic rat kidney; for vasoconstriction response to 48/80 compared to untreated diabetic kidney (in words): BILA 2157 in perfusate
Experimental: Mast-cell degranulation was induced with agent 48/80, which will release renin, as the inventors have previously shown, as well as numerous other mediators synthesized and stored by mast cells.
Flow rate (ml/min) was measured under constant perfusion pressure, and is plotted against time (min).
After establishing a constant flow rate, mast-cell degranulation was induced by injecting the 48/80 degranulating agent (300 μg/ml) into the renal artery (at arrow). […] However, the magnitude of this vasoconstriction response was markedly different between the two kidneys. […] Moreover, the return to baseline flow rate was much faster in the BILA2157-treated diabetic kidney (˜8 min) compared to the untreated diabetic kidney (˜40 min). The rate of the initial flow recovery was also greater in the BILA-treated diabetic kidney (0.5 mls/min/min) compared to the untreated diabetic kidney (0.3 mls/min/min). […] In situ, the time it takes to return to normal flow after an acute increase in vascular resistance can profoundly influence the extent of ischemic damage in the kidney.

renin = experiment: Renin activity (ANG I formed, RIA) of HMC-1 cells before and 48 hours after siRNA transfection; type: cell-based, human; details: siRNA 50 nM, 48 hours after transfection
Experimental: Renin-specific siRNA duplexes were made based on the coding sequence of human renin between exons 2-8 (Dharmacon) (accession number M26900). The four siRNA duplexes were made against the following renin sequences:
To assess the efficacy of this siRNA approach, the activity of renin protein was measured both before siRNA transfecting and at 48 hours after transfection of the HMC-1 cells.
HMC-1 cells were seeded in 6-well plates. Cells were transfected either with: renin siRNA duplexes (50 nM), scrambled siRNA duplex (50 nM), or treated with the transfection reagent (control), and maintained for 48 hours. An aliquot of cells from each well was counted to estimate the cell number before (initial) and 48 hours after transfection (post). The ability of the siRNA duplexes to silence renin mRNA in the transfected HMC-1 cells was determined by comparing the amount of ANG I formed in the releasate pre- and post-transfection by radioimmunoassay (RIA). […] The amount of ANG I generated on each sample is expressed as pg ANG I formed/ml/hr/10^5 cells. The effect of the siRNA on the amount of renin protein produced by the cell was determined by comparing the initial and final amounts of ANG I formed (renin activity) by the releasates.

STZ-induced diabetic rat = experiment: Retinal whole mounts stained with FITC-griffonia lectin (tortuosity of retinal microvasculature); type: in vivo; details: cromolyn-treated diabetic rat, retinal whole mount
Experimental: To induce a model of type-I diabetes, Sprague Dawley and Long-Evans rats were injected with a single dose of streptozotocin (STZ) (60 mg/kg) and maintained for 2 months. Hyperglycemia was confirmed by monitoring blood from tail bleeds. To assess vascular leakage in these diabetic rats, fluorescein retinal angiography was performed weekly over a 2-month time course in the Long-Evans rats. In some experiments, rats were treated with the mast cell stabilizer, Na-cromolyn, topically administered to the eyes. […] This Example describes an analysis of the retinal vasculature from fixed eyes of control (A), diabetic (B), and cromolyn-treated diabetic (C) rats.

[2] = tested on: STZ-induced diabetic rat model (Long Evans strain); experiment: Fluorescein angiography of retinal vascular permeability; type: in vivo; details: for leakage/pooling of fluorescein dye out of retinal vessels: 2 drops b.i.d.; for retinal vascular leakiness (fluorescein) over time: STZ Long-Evans rats, 14 and 28 days, n=3, FIG. 14
Experimental: To assess vascular leakage in these diabetic rats, fluorescein retinal angiography was performed weekly over a 2-month time course in the Long-Evans rats. In some experiments, rats were treated with the mast cell stabilizer, Na-cromolyn, topically administered to the eyes. The structure of Na-Cromolyn is shown below.
Angiography was performed on an upright fluorescence microscope using a long working distance lens. At the 2-month end point, rats were sacrificed and the eyes were enucleated, dissected free of cornea and extra-orbital connective tissue, and fixed in 4% paraformaldehyde.
The STZ-induced diabetic rat model (Long Evans strain) (40 mg/kg body wt; 28 days) was used for these studies. Fluorescein angiography was performed to assess the permeability of the retinal vasculature in these rats. The pigmented eyes of this strain facilitate angiography. Diabetic rats were treated with the mast cell stabilizer Na-cromolyn and the vascular permeability of these treated rats was compared to diabetic rats that were not treated with Na-cromolyn.
Weekly angiograms were also performed on control rats, STZ-injected, and STZ-injected rats treated with the mast cell stabilizer, Na cromolyn […], topically administered to the eyes (2 drops b.i.d.).
The STZ-induced diabetic rat model (Long Evans strain) (40 mg/kg body wt; 28 days) was used for fluorescein angiography experiments. The pigmented eyes of this strain facilitate angiography. To evaluate the role of mast cells, weekly angiograms were performed on control rats, STZ-injected, and STZ-injected rats treated with the mast cell stabilizer, Na cromolyn (4%), topically administered to the eyes (2 drops b.i.d.).

[3] = tested on: STZ-induced hyperglycemic Long-Evans rats; experiment: Evan's Blue dye leakage across the blood-retinal barrier; type: in vivo, rat; details: Na cromolyn 4% topical, 2 drops twice a day, day 15 post STZ, n=4 rats
From the text: In order to verify this finding, additional experiments were designed to measure leakiness across the blood-retinal barrier of STZ-induced hyperglycemic Long-Evans rats and to determine whether mast cell stabilization reduces vascular permeability in the hyperglycemic state. Blood glucose levels were monitored weekly to verify the hyperglycemic state. The three groups of animals were as follows: untreated hyperglycemic, cromolyn-treated hyperglycemic, and normo-glycemic (vehicle injected). The hyperglycemic group of rats was treated with the mast cell stabilizer (Na cromolyn, 4%) by topical administration to the eyes (2 drops twice a day), as described above.
Measurements of the Evan's Blue dye concentration across the blood-retinal barrier were performed on day 15 post±STZ-injection. […] 100 μl of the filtrate was then measured in a spectrophotometer at 620 nm, the dye's absorbance maximum. The dye's absorbance minimum, 740 nm, served as a reference wavelength. Dilutions (1:1000 in formamide) of the collected plasma were also measured spectrophotometrically at this time. Sample absorbance measurements were converted to concentrations using absorbance measurements from known concentrations of Evan's Blue in formamide. Dye leakage from blood to retina was calculated as: […]

VEGF = VEGF levels in retinas of STZ-injected diabetic rats; type: in vivo, rat; details: for effect on VEGF levels in retina (in words): STZ-induced diabetic rats, Na-Cromolyn 4% topical
Experimental: The STZ-induced diabetic rat model (Long Evans strain) (40 mg/kg body wt; 28 days) was used for these studies. To evaluate the effect of a mast cell stabilizer on VEGF levels, STZ-injected rats were treated with the mast cell stabilizer, Na-Cromolyn (4%), topically administered to the eyes (2 drops b.i.d.). VEGF levels were measured in the retinas of STZ-injected diabetic rats treated with Na-Cromolyn and these levels were compared to VEGF levels in the retinas of control rats and in the retinas of STZ-injected diabetic rats that received no Na-Cromolyn. Control rats received no streptozotocin (STZ) and no Na-Cromolyn.

HMC-1 cells = experiment: Chemotaxis of HMC-1 cells in Corning transwells; type: cell-based, human; details: transwell, p<0.05
Experimental: Chemotaxis experiments were performed with cultured human mastocytoma cells. HMC-1 cells were plated in Corning transwells consisting of inner and outer wells. The number of mast cells migrating through the insert in response to exogenous histamine±thioperamide, an H3/H4 histamine receptor […], was counted.

## CC(C)C[C@H](O)[C@H](O)[C@H](CC1CCCCC1)NC(=O)[C@@H](CC(=O)N(CC(=O)N(C)CCc1ccccn1)CC1CCCCC1)Cc1csc(N)n1 [BILA2157]
[1]; 100 nM BILA 2157, after 48/80
  rate of the initial flow recovery: 0.5 mls/min/min
  return to baseline flow rate: ~8 min
[1]; 100 nM BILA 2157 in perfusate, constant perfusion pressure, 48/80 300 μg/ml into renal artery
  flow rate after 48/80 injection (from baseline 20 ml/min): 12 mL/min
[1]; 100 nM in perfusate
  effect on flow rate in the absence of a degranulating agent: no effect on flow rate
[1]
  vasoconstriction response to 48/80 compared to untreated diabetic kidney (in words): much less vasoconstriction
[1]; listed as BILA 2157
  vasoconstriction response to 48/80 compared to untreated diabetic kidney (in words): offsets the rate reducing effects

## scrambled control siRNA: negative control, non-specific scrambled siRNA duplex, SEQ ID NO: 9 and 10 (chain 1 AUGUAUUGGCCUGUAUUAGUU; chain 2 CUAAUACAGGCCAAUACAUUU; listed as RNA, chemistry not given here)
renin
  change in renin activity / amount of ANG I formed after transfection (in words): no significant decrease

## O=C([O-])c1cc(=O)c2c(OCC(O)COc3cccc4oc(C(=O)[O-])cc(=O)c34)cccc2o1.[Na+].[Na+] [Na-cromolyn, Na-Cromolyn]
STZ-induced diabetic rat
  tortuosity / abnormal vessel morphology of retinal microvasculature: abnormal changes in the vessel morphology were not observed
[2]; Na cromolyn 2% topical, day 28, FIG. 15
  leakage/pooling of fluorescein dye out of retinal vessels: prevented dye pooling
[2]; Na cromolyn 4% topical, weekly angiograms
  leakage/pooling of fluorescein dye out of retinal vessels: prevented dye pooling
[2]
  retinal vascular leakiness (fluorescein) over time: greatly diminished
[2]; listed as cromolyn
  retinal vascular leakiness (fluorescein) over time: reduces the leakage of fluorescein from retinal vessels
[3]
  Evan's Blue dye leakage across the blood-retinal barrier: prevented dye leakage into the retinal space; also recorded: protects against the early phase of increased vascular permeability
[3]; listed as cromolyn Na
  Evan's Blue dye leakage across the blood-retinal barrier: protective effect against increased vascular permeability
VEGF
  effect on VEGF levels in retina (in words): reduces vascular endothelial growth factor (VEGF) levels
VEGF; listed as Cromolyn Na
  effect on VEGF levels in retina (in words): decreases vascular endothelial growth factor (VEGF) levels
VEGF; STZ-injected hyperglycemic rats, Na-Cromolyn 4% topical 2 drops b.i.d., 1 month, n=2
  VEGF level in retina: about 65 pg VEGF/ml/mg retina

## NCCc1c[nH]cn1 [histamine]
HMC-1 cells; vs control
  number of mast cells migrating through the insert in response to exogenous histamine: significantly more migration

## S=C(NC1CCCCC1)N1CCC(c2cnc[nH]2)CC1 [thioperamide]
HMC-1 cells
  migration with histamine alone compared to thioperamide alone or histamine in the presence of thioperamide: significantly more migration
